Experimental data published in US10555987B2, “GHRH agonists for the treatment of ischemic disorders” (UNIVERSITY OF MIAMI, priority 2012, dated 2020).
Entries after “also recorded” stand apart in the source; their conditions may differ. Non-standard residues stand in square brackets, D forms with d. Residues, ends and D or L forms follow the SMILES beside them. *: point of attachment. Phe(F5) = N[C@@H](Cc1c(F)c(F)c(F)c(F)c1F)C(=O)O; NMeY = CN[C@@H](Cc1ccc(O)cc1)C(=O)O; Agmatine = N=C(N)NCCCCN*; Nle = CCCC[C@H](N)C(=O)O; Orn = NCCC[C@H](N)C(=O)O; Abu = CC[C@H](N)C(=O)O

Tests used:
[1] = tested on: myocardial infarction (Fisher-344 rats); assay: Serial echocardiography after MI, compared to JI-38 (Example 15, Table 15); type: in vivo, rat; design: key to LVEDD: Left Ventricular End Diastolic Diameter / LVESD: Left Ventricular End Systolic Diameter / VD: Ventricular Diastole / VS: Ventricular Systole / EF: Ejection Fraction / FS: Fraction Shortening: ↓: downward arrow denotes lower than JI-38; ↑: upward arrow denotes greater than JI-38; =denotes same as JI-38; ⬇⬇: double arrow denotes greater effect; ⬆⬆: double arrow denotes greater effect; settings: in comparison to JI-38
Procedure, shortened: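 Female 6-month-old Fisher-344 rats with permanent left coronary artery ligation received placebo, JI-38 or GHRH agonists subcutaneously twice daily from 2 h post-surgery (10 per group). Under 2% isoflurane, M-mode LVEDD, LVESD and FS plus long-axis EF were measured at baseline, 2 days, 1, 2 and 4 weeks.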

GH release [2] = assay: GH releasing potency in vivo, subcutaneous administration (Example 14, Table 12); design: species or system rat; settings: for Serum GH level at selected time after injection (ng/ml), 0 min / Serum GH level at selected time after injection (ng/ml), 15 min / Serum GH level at selected time after injection (ng/ml), 30 min: male rats, dose 3 μg/kg, mean ± SEM
Procedure, shortened: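 Potency is expressed relative to GHRH(1-29)NH2 and JI-38 (each = 1), via equivalent GHRH(1-29)NH2 dose read from a standard curve. Peptides in 5% mannitol given i.v. or s.c. to anaesthetised male Sprague-Dawley rats (200-250 g); serum GH measured by ELISA at selected times.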

GHRH receptor [3] = target: T1, GHRH receptor (Homo sapiens, UniProt Q02643); assay: Receptor binding in vitro, 125I-labeled [His1,Nle27]-hGHRH(1-32)NH2, membrane receptors of human anterior pituitary cells (Table 14); settings: for Relative affinity (Binding potency) compared to JI-38: JI-38 = 1; for Relative affinity (Binding potency) compared to hGHRH(1-29): hGHRH(1-29)NH2 = 1; for GHRH receptor binding affinity (in words): compared to JI-38
T1 sequence (Q02643 23-423): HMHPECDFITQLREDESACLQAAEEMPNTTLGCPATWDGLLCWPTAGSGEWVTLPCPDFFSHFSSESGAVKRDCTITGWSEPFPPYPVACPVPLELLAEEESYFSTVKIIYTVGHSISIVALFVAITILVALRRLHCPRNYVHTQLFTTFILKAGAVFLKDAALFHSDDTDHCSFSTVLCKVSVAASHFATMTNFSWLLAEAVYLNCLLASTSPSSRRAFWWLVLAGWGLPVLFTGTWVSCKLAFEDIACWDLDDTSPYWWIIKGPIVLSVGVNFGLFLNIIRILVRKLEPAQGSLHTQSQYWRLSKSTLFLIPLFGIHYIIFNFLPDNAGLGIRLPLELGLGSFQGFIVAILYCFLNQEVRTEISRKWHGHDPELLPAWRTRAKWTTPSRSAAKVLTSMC

GHRH receptor [4] = target: T1, GHRH receptor; assay: GHRH receptor binding, competition with 125I-labeled JV-1-42, human pituitary membrane homogenates (Table 7); design: Normal human pituitaries were purchased from the National Hormone and Peptide Program; tissue National Hormone and Peptide Program (A.F. Parlow, Harbor-UCLA Medical Center, Torrance, Calif.); host or cells: normal human pituitary, membrane fraction; settings: JI-38 = 1, Table 7
Text: Normal human pituitaries were purchased from the National Hormone and Peptide Program (A.F. Parlow, Los Angeles, County Harbor-UCLA Medical Center, Torrance, Calif.).

GH release [5] = assay: In vivo endocrine activity, GH release after subcutaneous administration (Table 9); settings: rat; for Stimulation of growth hormone levels after subcutaneous administration (in words): s.c.; for GH releasing potency relative to JI-38 (=1): subcutaneous (s.c.) injection
Procedure: Subcutaneous Administration. Adult male rats were used and anesthetized with pentobarbital (6 mg/100 g, b.w.), by i.p. injection. […] Blood samples were taken from the jugular vein 5, 15 and/or 30 minutes after the injection. The blood samples were centrifuged, plasma was removed and the GH level was measured byELISA. The results are summarized in terms of potency in Table 9.

Row | Relative affinity (Binding potency) compared to hGHRH(1-29) (GHRH receptor [3]) | Relative affinity (Binding potency) vs JI-38 (GHRH receptor [4]) | Compound | EF: Ejection Fraction [1] | FS: Fraction Shortening [1] | LVEDD: Left Ventricular End Diastolic Diameter [1] | LVESD: Left Ventricular End Systolic Diameter [1] | VD: Ventricular Diastole [1] | VS: Ventricular Systole [1] | Serum GH level at selected time after injection (ng/ml), 0 min (GH release [2]; s.c.) [ng/mL] | Serum GH level at selected time after injection (ng/ml), 15 min (GH release [2]; s.c.) [ng/mL] | Serum GH level at selected time after injection (ng/ml), 30 min (GH release [2]; s.c.) [ng/mL] | Relative potency compared to GHRH(1-29), 15 min (GH release [2]; s.c.) | Relative potency compared to JI-38, 15 min (GH release [2]; s.c.) | Relative potency compared to GHRH(1-29), 30 min (GH release [2]; s.c.) | Relative potency compared to JI-38, 30 min (GH release [2]; s.c.) | Relative affinity (Binding potency) compared to JI-38 (GHRH receptor [3]) | Stimulation of growth hormone levels after subcutaneous administration (in words) (GH release [5]) | GH releasing potency relative to JI-38 (=1) (GH release [5]; 15 min after) | GH releasing potency relative to JI-38 (=1) (GH release [5]; 30 min after) | GHRH receptor binding affinity (in words) (GHRH receptor [3]) | further results
1 | 6.83 | 5.00 | CCCC[C@H](NC(=O)[C@@H](NC(=O)[C@H](CC(=O)O)NC(=O)[C@H](CCC(N)=O)NC(=O)[C@H](CC(C)C)NC(=O)[C@H](CC(C)C)NC(=O)[C@H](CCCN)NC(=O)[C@H](CCCNC(=N)N)NC(=O)[C@H](C)NC(=O)[C@H](CO)NC(=O)[C@H](CC(C)C)NC(=O)[C@H](CCC(N)=O)NC(=O)[C@H](CC)NC(=O)[C@H](CC(C)C)NC(=O)[C@@H](NC(=O)[C@H](CCCN)NC(=O)[C@H](CCCNC(=N)N)NC(=O)[C@H](Cc1ccc(O)cc1)NC(=O)[C@H](CO)NC(=O)[C@H](CCC(N)=O)NC(=O)[C@@H](NC(=O)[C@H](Cc1c(F)c(F)c(F)c(F)c1F)NC(=O)[C@@H](NC(=O)[C@H](C)NC(=O)[C@H](CC(=O)O)NC(=O)[C@@H](C)NC(=O)[C@H](Cc1ccc(O)cc1)NC)[C@@H](C)CC)[C@@H](C)O)C(C)C)[C@@H](C)CC)C(=O)N[C@@H](CC(=O)O)C(=O)N[C@@H](CCCNC(=N)N)C(=O)NC [Peptide P-27404, [N—Me-Tyr^1, D-Ala^2, Fpa5^6, Orn^12, Abu^15, Orn^21, Nle^27, Asp^28]hGHRH (1-29)NH—CH3] (H-[NMeY][dA]DAI[Phe(F5)]TQSYR[Orn]VL[Abu]QLSAR[Orn]LLQDI[Nle]DR-NHMe) | = | = | ↑ | = | ↑ | ↑ | 29.5 ± 3.2 | 320.5 ± 32.7 | 151 ± 28.5 | 97.1 | 1.54 | 148.4 | 1.33 | 2.45 | stimulated greater growth hormone levels than hGHRH or JI-38 | 2.07 | 1.47 | – | –
2 | 10.30 | 27.19 | CCCC[C@H](NC(=O)[C@@H](NC(=O)[C@H](CC(=O)O)NC(=O)[C@H](CCC(N)=O)NC(=O)[C@H](CC(C)C)NC(=O)[C@H](CC(C)C)NC(=O)[C@H](CCCN)NC(=O)[C@H](CCCNC(=N)N)NC(=O)[C@H](C)NC(=O)[C@H](CO)NC(=O)[C@H](CC(C)C)NC(=O)[C@H](CCC(N)=O)NC(=O)[C@H](CC)NC(=O)[C@H](CC(C)C)NC(=O)[C@@H](NC(=O)[C@H](CCCN)NC(=O)[C@H](CCCNC(=N)N)NC(=O)[C@H](Cc1ccc(O)cc1)NC(=O)[C@H](CO)NC(=O)[C@H](CCC(N)=O)NC(=O)[C@@H](NC(=O)[C@H](Cc1ccccc1)NC(=O)[C@@H](NC(=O)[C@H](C)NC(=O)[C@H](CC(=O)O)NC(=O)[C@@H](C)NC(=O)[C@H](Cc1ccc(O)cc1)NC)[C@@H](C)CC)[C@@H](C)O)C(C)C)[C@@H](C)CC)C(=O)N[C@@H](CC(=O)O)C(=O)N[C@@H](CCCNC(=N)N)C(=O)NC [Peptide P-27403, [N—Me-Tyr^1, D-Ala^2, Gln^8, Orn^12, Abu^15, Orn^21, Nle^27, Asp^28]hGHRH(1-29)NH—CH3] (H-[NMeY][dA]DAIFTQSYR[Orn]VL[Abu]QLSAR[Orn]LLQDI[Nle]DR-NHMe) | = | ↓ | ↑ | ↑ | ↑ | ↑ | 39.4 ± 5.3 | 608.7 ± 35.3 | 281.7 ± 18.6 | 223.8 | – | 448.9 | – | – | stimulated greater growth hormone levels than hGHRH or JI-38 | 3.60 | 2.57 | highest GH-releasing potency and binding affinity | potency as compared to JI-38 in both i.v. and s.c. tests (GH release [2]; both i.v. and s.c. tests): increased potency as compared to JI-38; Relative GH-releasing potency compared to JI-38 in s.c. tests (fold, range over time points) (GH release [2]; s.c., time not specified): 3.6-4.0; GH-releasing potency after s.c. administration (in words) (GH release [2]; s.c., listed as MR-403): highest GH-releasing potency; also recorded: significantly higher potencies at 30 minutes than at 15 minutes; Relative affinity (Binding potency) compared to JI-38 (GHRH receptor [3]; listed as MR-403): 3.69

Row | Compound | Relative affinity (Binding potency) compared to hGHRH(1-29) (GHRH receptor [3]) | Relative affinity (Binding potency) vs JI-38 (GHRH receptor [4]) | EF: Ejection Fraction [1] | FS: Fraction Shortening [1] | LVEDD: Left Ventricular End Diastolic Diameter [1] | LVESD: Left Ventricular End Systolic Diameter [1] | VD: Ventricular Diastole [1] | VS: Ventricular Systole [1] | Serum GH level at selected time after injection (ng/ml), 0 min (GH release [2]; s.c.) [ng/mL] | Serum GH level at selected time after injection (ng/ml), 15 min (GH release [2]; s.c.) [ng/mL] | Serum GH level at selected time after injection (ng/ml), 30 min (GH release [2]; s.c.) [ng/mL] | Relative potency compared to GHRH(1-29), 15 min (GH release [2]; s.c.) | Relative potency compared to JI-38, 15 min (GH release [2]; s.c.) | Relative potency compared to GHRH(1-29), 30 min (GH release [2]; s.c.) | Relative potency compared to JI-38, 30 min (GH release [2]; s.c.) | Relative affinity (Binding potency) compared to JI-38 (GHRH receptor [3]) | Stimulation of growth hormone levels after subcutaneous administration (in words) (GH release [5]) | GH releasing potency relative to JI-38 (=1) (GH release [5]; 15 min after) | GH releasing potency relative to JI-38 (=1) (GH release [5]; 30 min after) | GHRH receptor binding affinity (in words) (GHRH receptor [3]) | further results
3 | CCCC[C@H](NC(=O)[C@@H](NC(=O)[C@H](CC(=O)O)NC(=O)[C@H](CCC(N)=O)NC(=O)[C@H](CC(C)C)NC(=O)[C@H](CC(C)C)NC(=O)[C@H](CCCN)NC(=O)[C@H](CCCNC(=N)N)NC(=O)[C@H](C)NC(=O)[C@H](CO)NC(=O)[C@H](CC(C)C)NC(=O)[C@H](CCC(N)=O)NC(=O)[C@H](CC)NC(=O)[C@H](CC(C)C)NC(=O)[C@@H](NC(=O)[C@H](CCCN)NC(=O)[C@H](CCCNC(=N)N)NC(=O)[C@H](Cc1ccc(O)cc1)NC(=O)[C@H](CO)NC(=O)[C@H](CC(N)=O)NC(=O)[C@@H](NC(=O)[C@H](Cc1ccccc1)NC(=O)[C@@H](NC(=O)[C@H](C)NC(=O)[C@H](CC(=O)O)NC(=O)[C@@H](C)NC(=O)[C@H](Cc1ccc(O)cc1)NC)[C@@H](C)CC)[C@@H](C)O)C(C)C)[C@@H](C)CC)C(=O)N[C@@H](CC(=O)O)C(=O)NCCCCNC(=N)N [Peptide P-20367, [N—Me-Tyr^1, D-Ala^2, Orn^12, Abu^15, Orn^21, Nle^27, Asp^28, Agm^29]hGHRH(1-29)NH2] (H-[NMeY][dA]DAIFTNSYR[Orn]VL[Abu]QLSAR[Orn]LLQDI[Nle]D-Agmatine) | 7.01 | 2.56 | = | = | ↑ | ↑ | ↑ | ↑ | 41.1 ± 5.6 | 244.0 ± 25.1 | 141.2 ± 12.3 | 68.1 | 1.08 | 131.7 | 1.18 | 2.51 | – | 1.12 | 2.01 | improved receptor binding affinity | –
